According to DBAASP:
≈ marks a conversion by molar mass, not a printed value. Where “and” joins values, the source holds several entries; their conditions need not be identical. Equal entries are not always repeated. Each block holds one molecule with its values, some of them ahead of it.

What was measured:
Assay in all cases: ≥ marks a high value that may be exact or a test limit, other limits are often not marked, values filed in µg/mL are converted to µM
Streptococcus mutans = tested on: Streptococcus mutans
[1] = tested on: Candida albicans ATCC 90028
[2] = tested on: Staphylococcus aureus NCTC 8325
[3] = tested on: Escherichia coli ATCC 25922
Bacillus subtilis 168 = tested on: Bacillus subtilis 168
Staphylococcus aureus = tested on: Staphylococcus aureus
Pseudomonas aeruginosa = tested on: Pseudomonas aeruginosa
Escherichia coli B = tested on: Escherichia coli B
Micrococcus luteus = tested on: Micrococcus luteus
Escherichia coli = tested on: Escherichia coli
[4] = tested on: Pseudomonas aeruginosa ATCC 27853
Klebsiella pneumoniae = tested on: Klebsiella pneumoniae
Acinetobacter baumannii = tested on: Acinetobacter baumannii
[5] = tested on: Staphylococcus aureus ATCC 25923
[6] = tested on: Acinetobacter baumannii ATCC 19606
[7] = tested on: Klebsiella pneumoniae ATCC 13883
[8] = tested on: Pseudomonas aeruginosa ATCC 10145
[9] = tested on: Escherichia coli ATCC 11775

SMILES: CC(C)C[C@H](NC(=O)[C@H](CC(C)C)NC(=O)[C@H](CCCCN)NC(=O)[C@H](CCCCN)NC(=O)[C@H](CC(C)C)NC(=O)[C@H](CCCCN)NC(=O)[C@H](CCCCN)NC(=O)[C@H](CC(C)C)NC(=O)[C@H](CC(C)C)NC(=O)[C@H](CCCCN)NC(=O)[C@H](CCCCN)NC(=O)[C@H](CC(C)C)NC(=O)[C@@H](N)CCCCN)C(=O)N[C@@H](CCCCN)C(=O)O [KLKKLLKKLKKLLK]
- MIC (Streptococcus mutans): 4.64 µM (≈ 8 µg/mL)

SMILES: CC[C@H](C)[C@H](NC(=O)CNC(=O)[C@H](CCCCN)NC(=O)CNC(=O)[C@H](C)NC(=O)[C@H](Cc1ccccc1)NC(=O)[C@H](CCCCN)NC(=O)[C@H](CO)NC(=O)[C@H](Cc1ccccc1)NC(=O)[C@H](CC(C)C)NC(=O)CN)C(=O)N[C@@H](CCCCN)C(=O)N[C@@H](CC(N)=O)C(=O)N[C@@H](CC(C)C)C(=O)N[C@H](C(=O)N[C@@H](Cc1ccccc1)C(=O)N[C@@H](CCCCN)C(=O)NCC(=O)N[C@H](C(=O)N[C@@H](CCCCN)C(=O)N[C@@H](Cc1cnc[nH]1)C(=O)N[C@H](C(=O)NCC(=O)N[C@@H](CCCCN)C(=O)N[C@@H](CCC(=O)O)C(=O)N[C@H](C(=O)NCC(=O)N[C@@H](CCSC)C(=O)N[C@@H](CC(=O)O)C(=O)N[C@H](C(=O)N[C@H](C(=O)N[C@@H](CCCN=C(N)N)C(=O)N[C@H](C(=O)NCC(=O)N[C@H](C(=O)N[C@@H](CC(=O)O)C(=O)N[C@H](C(=O)N[C@@H](C)C(=O)NCC(=O)N[C@H]1CSSC[C@@H](C(=O)O)NC(=O)[C@H](CCC(=O)O)NC(=O)CNC(=O)[C@H](CCCCN)NC(=O)[C@H]([C@@H](C)CC)NC(=O)[C@H](CCCCN)NC1=O)C(C)C)[C@@H](C)CC)[C@@H](C)O)[C@@H](C)CC)C(C)C)C(C)C)[C@@H](C)CC)C(C)C)[C@@H](C)CC [GLFSKFAGKGIKNLIFKGVKHIGKEVGMDVIRTGIDVAGCKIKGEC]
- MIC [1]: ≥ 50 µM
- MIC [2]: 12.5 µM (≈ 60.8 µg/mL)
- MIC [3]: 6 µM (≈ 29.2 µg/mL)

SMILES: CC(C)C[C@H](NC(=O)CNC(=O)[C@H](CC(C)C)NC(=O)CNC(=O)[C@H](CC(N)=O)NC(=O)[C@H](CC(C)C)NC(=O)[C@H](CC(C)C)NC(=O)[C@H](CC(N)=O)NC(=O)CNC(=O)[C@H](CC(C)C)NC(=O)[C@@H](NC(=O)CNC(=O)[C@H](CC(C)C)NC(=O)[C@H](CC(C)C)NC(=O)CN)[C@@H](C)O)C(N)=O [GLLGTLGNLLNGLGL]
- MIC (Micrococcus luteus): ≥ 35.1 µM

SMILES: CC[C@H](C)[C@H](NC(=O)[C@@H](N)CCCCN)C(=O)NCC(=O)N[C@@H](CCCCN)C(=O)N[C@@H](C)C(=O)N[C@@H](CC(C)C)C(=O)NCC(=O)N[C@@H](CCCCN)C(=O)N[C@@H](C)C(=O)N[C@@H](CC(C)C)C(=O)N[C@@H](CCCCN)C(=O)N[C@@H](C)C(=O)N[C@@H](CC(C)C)C(=O)NCC(=O)N[C@@H](CCCCN)C(=O)N[C@@H](C)C(=O)N[C@@H](CC(C)C)C(=O)NCC(=O)N[C@@H](CCCCN)C(=O)N[C@@H](C)C(N)=O [KIGKALGKALKALGKALGKA]
- MIC (Escherichia coli): 45.3 µM (≈ 87.6 µg/mL)
- MIC (Staphylococcus aureus): 16 µM (≈ 31 µg/mL)
- MIC (Pseudomonas aeruginosa): 22.6 µM (≈ 43.8 µg/mL)
- MIC [4]: 8 µM (≈ 15.5 µg/mL)
- MIC (Klebsiella pneumoniae): 16 µM (≈ 31 µg/mL)
- MIC [3]: 8 µM (≈ 15.5 µg/mL)
- MIC (Acinetobacter baumannii): ≥ 45.3 µM
- MIC [5]: 16 µM and 22.6 µM
- MIC [6]: 2 µM (≈ 3.87 µg/mL)
- MIC [7]: 16 µM (≈ 31 µg/mL)

SMILES: CC[C@H](C)[C@H](NC(=O)[C@H](CC(C)C)NC(=O)[C@H](CCCCN)NC(=O)[C@H](CCCCN)NC(=O)[C@@H](NC(=O)[C@H](C)NC(=O)[C@H](CCCCN)NC(=O)[C@@H](NC(=O)[C@H](C)NC(=O)[C@H](Cc1cnc[nH]1)NC(=O)[C@@H]1CCCN1C(=O)[C@@H](NC(=O)[C@H](CC(C)C)NC(=O)[C@@H]1CCCN1C(=O)CNC(=O)[C@@H](NC(=O)[C@H](Cc1ccc(O)cc1)NC(=O)[C@H](CCCCN)NC(=O)[C@H](CCSC)NC(=O)[C@H](Cc1ccccc1)NC(=O)CN)[C@@H](C)CC)[C@@H](C)CC)C(C)C)[C@@H](C)CC)C(N)=O [GFMKYIGPLIPHAVKAIKKLI]
- MIC [1]: 25 µM (≈ 58.4 µg/mL)
- MIC [2]: 3.13 µM (≈ 7.31 µg/mL)
- MIC [3]: 6.25 µM (≈ 14.6 µg/mL)

SMILES: C[C@H](NC(=O)[C@H](C)NC(=O)[C@H](CCCCN)NC(=O)[C@H](CCCCN)NC(=O)[C@H](C)NC(=O)[C@H](C)NC(=O)[C@H](CCCCN)NC(=O)[C@H](CCCCN)NC(=O)[C@H](C)NC(=O)[C@H](Cc1ccccc1)NC(=O)[C@H](CCCCN)NC(=O)[C@H](CCCCN)NC(=O)[C@H](C)NC(=O)[C@H](Cc1ccccc1)NC(=O)[C@@H](N)CCCCN)C(=O)N[C@@H](CCCCN)C(=O)O [KFAKKFAKKAAKKAAK]
- MIC [8]: ≥ 142 µM

SMILES: CC[C@H](C)[C@H](NC(=O)[C@H](CC(C)C)NC(=O)[C@H](Cc1cnc[nH]1)NC(=O)CNC(=O)[C@H](CC(C)C)NC(=O)[C@@H](NC(=O)[C@H](CCCCN)NC(=O)[C@H](CO)NC(=O)[C@H](Cc1c[nH]c2ccccc12)NC(=O)[C@H](CCSC)NC(=O)CN)[C@@H](C)CC)C(=O)N[C@@H](CCCCN)C(N)=O [GMWSKILGHLIK]
- MIC (Bacillus subtilis 168): 1.3 µM (≈ 1.8 µg/mL)
- MIC (Staphylococcus aureus): 15.8 µM (≈ 21.8 µg/mL)
- MIC (Pseudomonas aeruginosa): 65 µM (≈ 89.8 µg/mL)
- MIC (Escherichia coli B): 7.2 µM (≈ 9.95 µg/mL)

SMILES: CC[C@H](C)[C@H](NC(=O)[C@H](Cc1cnc[nH]1)NC(=O)[C@H](CCCCN)NC(=O)[C@H](Cc1c[nH]c2ccccc12)NC(=O)[C@H](CC(C)C)NC(=O)[C@H](CO)NC(=O)[C@H](CCSC)NC(=O)[C@H](Cc1c[nH]c2ccccc12)NC(=O)[C@H](CCCCN)NC(=O)CN)C(=O)N[C@@H](CC(C)C)C(=O)N[C@@H](CCCCN)C(N)=O [GKWMSLWKHILK]
- MIC (Bacillus subtilis 168): 1.4 µM (≈ 2.14 µg/mL)
- MIC (Staphylococcus aureus): 27 µM (≈ 41.2 µg/mL)
- MIC (Pseudomonas aeruginosa): 32.5 µM (≈ 49.6 µg/mL)
- MIC (Escherichia coli B): 8 µM (≈ 12.2 µg/mL)

SMILES: CC[C@H](C)[C@H](NC(=O)[C@H](CC(C)C)NC(=O)CNC(=O)[C@H](CO)NC(=O)[C@H](CC(C)C)NC(=O)[C@@H](NC(=O)[C@H](CCCCN)NC(=O)CNC(=O)[C@@H](NC(=O)[C@H](CC(C)C)NC(=O)[C@@H]1CCCN1C(=O)[C@H](CC(C)C)NC(=O)[C@@H](N)Cc1ccccc1)C(C)C)[C@@H](C)CC)C(N)=O [FLPLVGKILSGLI]
- MIC [2]: ≥ 70 µM

Second part, the molecule after the results:

- MIC (Bacillus subtilis 168): 1.3 µM (≈ 2.24 µg/mL)
- MIC (Staphylococcus aureus): 71.6 µM (≈ 123 µg/mL)
- MIC (Pseudomonas aeruginosa): 22.7 µM (≈ 39.1 µg/mL)
- MIC (Escherichia coli B): 2.5 µM (≈ 4.31 µg/mL)
SMILES: CC[C@H](C)[C@H](NC(=O)[C@H](CCCCN)NC(=O)CNC(=O)[C@H](CC(C)C)NC(=O)[C@@H](NC(=O)[C@H](CCCCN)NC(=O)[C@H](CCCCN)NC(=O)[C@H](Cc1c[nH]c2ccccc12)NC(=O)[C@@H](NC(=O)[C@@H](N)CC(N)=O)C(C)C)C(C)C)C(=O)N[C@H](C(=O)N[C@@H](CCCCN)C(=O)N[C@H](C(=O)N[C@@H](C)C(=O)N[C@@H](CCCCN)C(N)=O)C(C)C)[C@@H](C)CC [NVWKKVLGKIIKVAK]

- MIC (Streptococcus mutans): ≥ 93.4 µM
SMILES: CC[C@H](C)[C@H](NC(=O)[C@H](CCC(N)=O)NC(=O)[C@H](CCCCN)NC(=O)[C@@H](NC(=O)[C@H](CCC(N)=O)NC(=O)[C@H](CC(N)=O)NC(=O)[C@H](CC(C)C)NC(=O)[C@@H](NC(=O)[C@@H](N)CCCN=C(N)N)C(C)C)C(C)C)C(=O)N[C@@H](CC(C)C)C(=O)N[C@@H](CCCCN)C(=O)O [RVLNQVKQILK]

- MIC (Streptococcus mutans): 6.76 µM (≈ 16 µg/mL)
SMILES: NC(=O)[C@H](Cc1ccccc1)NC(=O)[C@H](Cc1c[nH]c2ccccc12)NC(=O)[C@H](CCCN=C(N)N)NC(=O)[C@H](Cc1c[nH]c2ccccc12)NC(=O)[C@H](CCCN=C(N)N)NC(=O)[C@H](Cc1c[nH]c2ccccc12)NC(=O)[C@H](CCCN=C(N)N)NC(=O)[C@H](Cc1ccccc1)NC(=O)[C@H](Cc1c[nH]c2ccccc12)NC(=O)[C@H](CCCN=C(N)N)NC(=O)[C@H](Cc1c[nH]c2ccccc12)NC(=O)[C@H](CCCN=C(N)N)NC(=O)[C@H](Cc1c[nH]c2ccccc12)NC(=O)[C@@H](N)CCCN=C(N)N [RWRWRWFRWRWRWF]

- MIC (Streptococcus mutans): 11.5 µM (≈ 32 µg/mL)
SMILES: NC(=O)[C@H](Cc1ccccc1)NC(=O)[C@H](Cc1c[nH]c2ccccc12)NC(=O)[C@H](CCCN=C(N)N)NC(=O)[C@H](Cc1c[nH]c2ccccc12)NC(=O)[C@H](CCCN=C(N)N)NC(=O)[C@H](Cc1c[nH]c2ccccc12)NC(=O)[C@H](CCCN=C(N)N)NC(=O)[C@@H]1CCCN1C(=O)[C@H](CO)NC(=O)CNC(=O)[C@H](CO)NC(=O)[C@@H]1CCCN1C(=O)[C@H](Cc1ccccc1)NC(=O)[C@H](Cc1c[nH]c2ccccc12)NC(=O)[C@H](CCCN=C(N)N)NC(=O)[C@H](Cc1c[nH]c2ccccc12)NC(=O)[C@H](CCCN=C(N)N)NC(=O)[C@H](Cc1c[nH]c2ccccc12)NC(=O)[C@@H](N)CCCN=C(N)N [RWRWRWFPSGSPRWRWRWF]

- MIC [4]: 143 µM (≈ 201 µg/mL)
- MIC [3]: 36 µM (≈ 50.5 µg/mL)
- MIC [9]: ≥ 36 µM
- MIC [5]: 143 µM (≈ 201 µg/mL)
SMILES: NCCCC[C@H](NC(=O)[C@H](Cc1c[nH]c2ccccc12)NC(=O)[C@H](CCC(N)=O)NC(=O)[C@H](Cc1c[nH]c2ccccc12)NC(=O)[C@H](CCCCN)NC(=O)[C@H](Cc1c[nH]c2ccccc12)NC(=O)[C@H](CCC(N)=O)NC(=O)[C@H](Cc1c[nH]c2ccccc12)NC(=O)[C@@H](N)CCCCN)C(=O)O [KWQWKWQWK]
